Numbered stars: 1 amine (or outer) side, 2 acyl side, 3 side chain; on linkers, the order of the positions; unused ones are H or OH. Square brackets hold non-standard residues; d marks the D form. Side chains are listed from the residue outwards. Peptide text beside a SMILES is read from it. * marks the point of attachment. C18 diacid = O=C(O)CCCCCCCCCCCCCCCCC(=O)*; γGlu = O=C(O)[C@H](CCC(=O)[*:2])N[*:1]; AEEA = NCCOCCOCC(=O)O
biological target: glucagon receptor (Homo sapiens, UniProt P47871); test: cell-based
Sequence (P47871 26-477): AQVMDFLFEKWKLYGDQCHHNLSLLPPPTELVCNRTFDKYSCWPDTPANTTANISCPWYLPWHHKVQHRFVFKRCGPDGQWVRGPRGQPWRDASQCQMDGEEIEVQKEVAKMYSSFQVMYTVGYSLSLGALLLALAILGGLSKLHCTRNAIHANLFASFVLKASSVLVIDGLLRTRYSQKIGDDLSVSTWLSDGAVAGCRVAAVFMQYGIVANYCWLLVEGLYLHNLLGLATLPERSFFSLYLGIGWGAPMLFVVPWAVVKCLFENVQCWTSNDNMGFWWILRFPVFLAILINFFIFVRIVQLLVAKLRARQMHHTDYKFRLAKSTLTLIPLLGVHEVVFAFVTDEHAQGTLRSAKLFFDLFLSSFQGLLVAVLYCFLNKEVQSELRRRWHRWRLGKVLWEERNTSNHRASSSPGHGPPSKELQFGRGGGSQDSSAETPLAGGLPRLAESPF

| Structure (SMILES) | EC50 [nM] |
| --- | --- |
| CC(C)C[C@H](NC(=O)[C@H](Cc1ccc(O)cc1)NC(=O)[C@H](CCCCN)NC(=O)[C@H](CO)NC(=O)[C@H](Cc1ccc(O)cc1)NC(=O)[C@H](CC(=O)O)NC(=O)[C@H](CO)NC(=O)[C@@H](NC(=O)[C@H](Cc1ccccc1)NC(=O)[C@@H](NC(=O)CNC(=O)[C@H](CCC(N)=O)NC(=O)[C@H](CO)NC(=O)[C@@H](N)Cc1c[nH]cn1)[C@@H](C)O)[C@@H](C)O)C(=O)N[C@@H](CC(=O)O)C(=O)N[C@@H](CO)C(=O)N[C@@H](CCCNC(=N)N)C(=O)N[C@@H](CCCNC(=N)N)C(=O)N[C@@H](C)C(=O)N[C@@H](CCC(N)=O)C(=O)N[C@@H](CC(=O)O)C(=O)N[C@@H](Cc1ccccc1)C(=O)N[C@H](C(=O)N[C@@H](CCCCNC(=O)CC[C@H](NC(=O)COCCOCCNC(=O)COCCOCCNC(=O)CC[C@H](NC(=O)CC[C@H](NC(=O)CCCCCCCCCCCCCCCCC(=O)O)C(=O)O)C(=O)O)C(=O)O)C(=O)N[C@@H](Cc1c[nH]c2ccccc12)C(=O)N[C@@H](CC(C)C)C(=O)N[C@@H](CC(C)C)C(=O)N[C@@H](CO)C(=O)N[C@H](C(=O)O)[C@@H](C)O)C(C)C [Example 68, N^ε24-[(4S)-4-carboxy-4-[[2-[2-[2-[[2-[2-[2-[[(4S)-4-carboxy-4-[[(4S)-4-carboxy-4-(17-carboxyheptadecanoylamino)butanoyl]amino]butanoyl]amino]ethoxy]ethoxy]acetyl]amino]ethoxy]ethoxy]acetyl]amino]butanoyl]-[Lys^24,Leu^27,Ser^28]-Glucagon] | 0.106 |
| CC(C)C[C@H](NC(=O)[C@H](Cc1ccc(O)cc1)NC(=O)[C@H](CCCCN)NC(=O)[C@H](CO)NC(=O)[C@H](Cc1ccc(O)cc1)NC(=O)[C@H](CC(=O)O)NC(=O)[C@H](CO)NC(=O)[C@@H](NC(=O)[C@H](Cc1ccccc1)NC(=O)[C@@H](NC(=O)CNC(=O)[C@H](CCC(N)=O)NC(=O)[C@H](CO)NC(=O)[C@@H](N)Cc1c[nH]cn1)[C@@H](C)O)[C@@H](C)O)C(=O)N[C@@H](CC(=O)O)C(=O)N[C@@H](CCCCNC(=O)CC[C@H](NC(=O)COCCOCCNC(=O)COCCOCCNC(=O)CC[C@H](NC(=O)CC[C@H](NC(=O)CCCCCCCCCCCCCCCCC(=O)O)C(=O)O)C(=O)O)C(=O)O)C(=O)N[C@@H](CCCNC(=N)N)C(=O)N[C@@H](CCCNC(=N)N)C(=O)N[C@@H](C)C(=O)N[C@@H](CCC(N)=O)C(=O)N[C@@H](CC(=O)O)C(=O)N[C@@H](Cc1ccccc1)C(=O)N[C@H](C(=O)N[C@@H](CCC(N)=O)C(=O)N[C@@H](Cc1c[nH]c2ccccc12)C(=O)N[C@@H](CC(C)C)C(=O)N[C@@H](CC(C)C)C(=O)N[C@@H](CC(N)=O)C(=O)N[C@H](C(=O)O)[C@@H](C)O)C(C)C [Example 78, N^ε16-[(4S)-4-carboxy-4-[[2-[2-[2-[[2-[2-[2-[[(4S)-4-carboxy-4-[[(4S)-4-carboxy-4-(17-carboxyheptadecanoylamino)butanoyl]amino]butanoyl]amino]ethoxy]ethoxy]acetyl]amino]ethoxy]ethoxy]acetyl]amino]butanoyl]-[Lys^16,Leu^27]-Glucagon] (H-HSQGTFTSDYSKYLDK([γGlu-AEEA-AEEA-γGlu-γGlu-C18 diacid])RRAQDFVQWLLNT-OH; N-terminus and C-terminus assumed) | 0.122 |
| CC(C)C[C@H](NC(=O)[C@H](Cc1ccc(O)cc1)NC(=O)[C@H](CCCCN)NC(=O)[C@H](CO)NC(=O)[C@H](Cc1ccc(O)cc1)NC(=O)[C@H](CC(=O)O)NC(=O)[C@H](CO)NC(=O)[C@@H](NC(=O)[C@H](Cc1ccccc1)NC(=O)[C@@H](NC(=O)CNC(=O)[C@H](CCC(N)=O)NC(=O)[C@H](CO)NC(=O)[C@@H](N)Cc1c[nH]cn1)[C@@H](C)O)[C@@H](C)O)C(=O)N[C@@H](CC(=O)O)C(=O)N[C@@H](CO)C(=O)N[C@@H](CCCNC(=N)N)C(=O)N[C@@H](CCCNC(=N)N)C(=O)N[C@@H](C)C(=O)N[C@@H](CCC(N)=O)C(=O)N[C@@H](CC(=O)O)C(=O)N[C@@H](Cc1ccccc1)C(=O)N[C@H](C(=O)N[C@@H](CCC(N)=O)C(=O)N[C@@H](Cc1c[nH]c2ccccc12)C(=O)N[C@@H](CC(C)C)C(=O)N[C@@H](CC(C)C)C(=O)N[C@@H](CCCCNC(=O)CC[C@H](NC(=O)CC[C@H](NC(=O)CC[C@H](NC(=O)CCCCCCCCCCCCCCCCC(=O)O)C(=O)O)C(=O)O)C(=O)O)C(=O)N[C@H](C(=O)O)[C@@H](C)O)C(C)C [Example 79, N^ε28-[(4S)-4-carboxy-4-[[(4S)-4-carboxy-4-[[(4S)-4-carboxy-4-(17-carboxyheptadecanoylamino)butanoyl]amino]butanoyl]amino]butanoyl]-[Leu^27,Lys^28]-Glucagon] | 0.141 |
| CC(C)C[C@H](NC(=O)[C@H](Cc1ccc(O)cc1)NC(=O)[C@H](CCCCN)NC(=O)[C@H](CO)NC(=O)[C@H](Cc1ccc(O)cc1)NC(=O)[C@H](CC(=O)O)NC(=O)[C@H](CO)NC(=O)[C@@H](NC(=O)[C@H](Cc1ccccc1)NC(=O)[C@@H](NC(=O)CNC(=O)[C@H](CCC(N)=O)NC(=O)[C@H](CO)NC(=O)[C@@H](N)Cc1c[nH]cn1)[C@@H](C)O)[C@@H](C)O)C(=O)N[C@@H](CC(=O)O)C(=O)N[C@@H](CO)C(=O)N[C@@H](CCCNC(=N)N)C(=O)N[C@@H](CCCNC(=N)N)C(=O)N[C@@H](C)C(=O)N[C@@H](CCC(N)=O)C(=O)N[C@@H](CC(=O)O)C(=O)N[C@@H](Cc1ccccc1)C(=O)N[C@H](C(=O)N[C@@H](CCC(N)=O)C(=O)N[C@@H](Cc1c[nH]c2ccccc12)C(=O)N[C@@H](CC(C)C)C(=O)N[C@@H](CCCCNC(=O)CC[C@H](NC(=O)CC[C@H](NC(=O)COCCOCCNC(=O)COCCOCCNC(=O)CC[C@H](NC(=O)CCCCCCCCCCCCCCCCC(=O)O)C(=O)O)C(=O)O)C(=O)O)C(=O)N[C@@H](CC(N)=O)C(=O)N1CCC[C@H]1C(=O)O)C(C)C [Example 85, N^ε27-[(4S)-4-carboxy-4-[[(4S)-4-carboxy-4-[[2-[2-[2-[[2-[2-[2-[[(4S)-4-carboxy-4-(17-carboxyheptadecanoylamino)butanoyl]amino]ethoxy]ethoxy]acetyl]amino]ethoxy]ethoxy]acetyl]amino]butanoyl]amino]butanoyl]-[Lys^27,Pro^29]-Glucagon] | 1.17 |
| CC(C)C[C@H](NC(=O)[C@H](Cc1ccc(O)cc1)NC(=O)[C@H](CCCCN)NC(=O)[C@H](CO)NC(=O)[C@H](Cc1ccc(O)cc1)NC(=O)[C@H](CC(=O)O)NC(=O)[C@H](CO)NC(=O)[C@@H](NC(=O)[C@H](Cc1ccccc1)NC(=O)[C@@H](NC(=O)CNC(=O)[C@H](CCC(N)=O)NC(=O)[C@@H](CO)NC(=O)[C@@H](N)Cc1c[nH]cn1)[C@@H](C)O)[C@@H](C)O)C(=O)N[C@@H](CC(=O)O)C(=O)N[C@@H](CCC(=O)O)C(=O)N[C@@H](CCCNC(=N)N)C(=O)N[C@@H](CCCNC(=N)N)C(=O)N[C@@H](C)C(=O)N[C@@H](CCC(N)=O)C(=O)N[C@@H](CC(=O)O)C(=O)N[C@@H](Cc1ccccc1)C(=O)N[C@H](C(=O)N[C@@H](CCCCNC(=O)COCCOCCNC(=O)COCCOCCNC(=O)CC[C@H](NC(=O)CCCCCCCCCCCCCCCCC(=O)O)C(=O)O)C(=O)N[C@@H](Cc1c[nH]c2ccccc12)C(=O)N[C@@H](CC(C)C)C(=O)N[C@@H](CC(C)C)C(=O)N[C@@H](CC(N)=O)C(=O)N[C@H](C(=O)O)[C@@H](C)O)C(C)C [Example 2] (H-H[dS]QGTFTSDYSKYLDERRAQDFVK([AEEA-AEEA-γGlu-C18 diacid])WLLNT-OH; N-terminus and C-terminus assumed) | 0.149 |

Now from value to compound:

| EC50 [nM] | Structure (SMILES) |
| --- | --- |
| 0.206 | CC(C)C[C@H](NC(=O)[C@H](Cc1ccc(O)cc1)NC(=O)[C@H](CCCCN)NC(=O)[C@H](CO)NC(=O)[C@H](Cc1ccc(O)cc1)NC(=O)[C@H](CC(=O)O)NC(=O)[C@H](CO)NC(=O)[C@@H](NC(=O)[C@H](Cc1ccccc1)NC(=O)[C@@H](NC(=O)CNC(=O)[C@H](CCC(N)=O)NC(=O)[C@H](CO)NC(=O)[C@@H](N)Cc1c[nH]cn1)[C@@H](C)O)[C@@H](C)O)C(=O)N[C@@H](CC(=O)O)C(=O)N[C@@H](CO)C(=O)N[C@@H](CCCNC(=N)N)C(=O)N[C@@H](CCCCNC(=O)COCCOCCNC(=O)COCCOCCNC(=O)CC[C@H](NC(=O)CCCCCCCCCCCCCCCCC(=O)O)C(=O)O)C(=O)N[C@@H](C)C(=O)N[C@@H](CCC(N)=O)C(=O)N[C@@H](CC(=O)O)C(=O)N[C@@H](Cc1ccccc1)C(=O)N[C@H](C(=O)N[C@@H](CCC(N)=O)C(=O)N[C@@H](Cc1c[nH]c2ccccc12)C(=O)N[C@@H](CC(C)C)C(=O)N[C@@H](CC(C)C)C(=O)N[C@@H](CC(N)=O)C(=O)N[C@H](C(=O)O)[C@@H](C)O)C(C)C [Example 18] (H-HSQGTFTSDYSKYLDSRK([AEEA-AEEA-γGlu-C18 diacid])AQDFVQWLLNT-OH; N-terminus and C-terminus assumed) |
| 0.018 | CC(C)C[C@H](NC(=O)[C@H](Cc1ccc(O)cc1)NC(=O)[C@H](CCCCN)NC(=O)[C@H](CO)NC(=O)[C@H](Cc1ccc(O)cc1)NC(=O)[C@H](CC(=O)O)NC(=O)[C@H](CO)NC(=O)[C@@H](NC(=O)[C@H](Cc1ccccc1)NC(=O)[C@@H](NC(=O)CNC(=O)[C@H](CCC(N)=O)NC(=O)[C@H](CO)NC(=O)[C@@H](N)Cc1c[nH]cn1)[C@@H](C)O)[C@@H](C)O)C(=O)N[C@@H](CC(=O)O)C(=O)N[C@@H](CCCCNC(=O)COCCOCCNC(=O)COCCOCCNC(=O)CC[C@H](NC(=O)CCCCCCCCCCCCCCCCC(=O)O)C(=O)O)C(=O)N[C@@H](CCCCN)C(=O)N[C@@H](CCCNC(=N)N)C(=O)N[C@@H](C)C(=O)N[C@@H](CCC(N)=O)C(=O)N[C@@H](CCC(=O)O)C(=O)N[C@@H](Cc1ccccc1)C(=O)N[C@H](C(=O)N[C@@H](CCC(N)=O)C(=O)N[C@@H](Cc1c[nH]c2ccccc12)C(=O)N[C@@H](CC(C)C)C(=O)N[C@@H](CC(C)C)C(=O)N[C@@H](CC(N)=O)C(=O)N[C@H](C(N)=O)[C@@H](C)O)C(C)C [Example 34, N^ε16-([2-[2-[2-[[2-[2-[2-[[(4S)-5-hydroxy-4-[(18-hydroxy-18-oxooctadecanoyl)amino]-5-oxopentanoyl]amino]ethoxy]ethoxy]acetyl]amino]ethoxy]ethoxy]acetyl])[Lys^16,Lys^17,Glu^21, Leu^27] Glucagon peptide amide] (H-HSQGTFTSDYSKYLDK([AEEA-AEEA-γGlu-C18 diacid])KRAQEFVQWLLNT-NH2; N-terminus assumed) |

From patent US20160271263A1 (Novo Nordisk A/S, priority 2010, published 2016)
